# Read-outs that look alike come from different tables or passages of the source.
# Test system: several cell lines (Panel/Cell Line)
# Assay: GI50, TGI and LC50 of compound II-21 for several cell lines (Table 12)
# Details: 48-h exposure; for GI50 / CC50: Homo sapiens
smiles,measurement,setting,value
C(=N/Nc1ncnc2sc3c(c12)CCCC3)/c1ccccn1 [II-21],GI50,"NCI-H522, 48 h, Non-Small Cell Lung Cancer, NCI-H522",0.419 µM
same,CC50,"NCI-H522, 48 h, read-out: LC50 (M), Non-Small Cell Lung Cancer, NCI-H522",> 0.0001 M
same,GI50,"NCI/ADR-RES, 48 h, Ovarian Cancer",0.427 µM
same,CC50,"NCI/ADR-RES, 48 h, read-out: LC50 (M), Ovarian Cancer, NCI/ADR-RES",> 0.0001 M
same,GI50,"OVCAR-3, 48 h, Ovarian Cancer, OVCAR-3",0.109 µM
same,CC50,"OVCAR-3, 48 h, read-out: LC50 (M), Ovarian Cancer, OVCAR-3",4.39e-05 M
same,GI50,"OVCAR-4, 48 h, Ovarian Cancer, OVCAR-4",0.431 µM
same,CC50,"OVCAR-4, 48 h, read-out: LC50 (M), Ovarian Cancer, OVCAR-4",> 0.0001 M
same,GI50,"OVCAR-5, 48 h, Ovarian Cancer, OVCAR-5",0.823 µM
same,CC50,"OVCAR-5, 48 h, read-out: LC50 (M), Ovarian Cancer, OVCAR-5",> 0.0001 M
same,GI50,"OVCAR-8, 48 h, Ovarian Cancer, OVCAR-8",0.481 µM
same,CC50,"OVCAR-8, 48 h, read-out: LC50 (M), Ovarian Cancer, OVCAR-8",> 0.0001 M
same,GI50,"RPMI-8226, 48 h, Leukemia, RPMI-8226",0.35 µM
same,CC50,"RPMI-8226, 48 h, read-out: LC50 (M), Leukemia, RPMI-8226",> 0.0001 M
same,GI50,"RXF 393, 48 h, Renal Cancer, RXF 393",0.423 µM
same,CC50,"RXF 393, 48 h, read-out: LC50 (M), Renal Cancer, RXF 393",4.53e-05 M
same,GI50,"SF-268, 48 h, CNS Cancer, SF-268",0.356 µM
same,CC50,"SF-268, 48 h, read-out: LC50 (M), CNS Cancer, SF-268",8.3e-05 M
same,GI50,"SF-295, 48 h, CNS Cancer, SF-295",0.313 µM
same,CC50,"SF-295, 48 h, read-out: LC50 (M), CNS Cancer, SF-295",> 0.0001 M
same,GI50,"SF-539, 48 h, CNS Cancer, SF-539",0.391 µM
same,CC50,"SF-539, 48 h, read-out: LC50 (M), CNS Cancer, SF-539",2.92e-05 M
same,GI50,"SK-MEL-2, 48 h, Melanoma, SK-MEL-2",7.51 µM
same,CC50,"SK-MEL-2, 48 h, read-out: LC50 (M), Melanoma, SK-MEL-2",6.78e-05 M
same,GI50,"SK-MEL-5, 48 h, Melanoma, SK-MEL-5",0.332 µM
same,CC50,"SK-MEL-5, 48 h, read-out: LC50 (M), Melanoma, SK-MEL-5",2.36e-05 M
same,GI50,"SK-MEL-28, 48 h, Melanoma, SK-MEL-28",0.422 µM
same,CC50,"SK-MEL-28, 48 h, read-out: LC50 (M), Melanoma, SK-MEL-28",5.46e-05 M
same,GI50,"SK-OV-3, 48 h, Ovarian Cancer, SK-OV-3",0.41 µM
same,CC50,"SK-OV-3, 48 h, read-out: LC50 (M), Ovarian Cancer, SK-OV-3",> 0.0001 M
same,GI50,"SN12C, 48 h, Renal Cancer",0.426 µM
same,CC50,"SN12C, 48 h, read-out: LC50 (M), Renal Cancer, SN12C",8.1e-05 M
same,GI50,"SNB-19, 48 h, CNS Cancer, SNB-19",0.767 µM
same,CC50,"SNB-19, 48 h, read-out: LC50 (M), CNS Cancer, SNB-19",> 0.0001 M
same,GI50,"SNB-75, 48 h, CNS Cancer, SNB-75",0.585 µM
same,CC50,"SNB-75, 48 h, read-out: LC50 (M), CNS Cancer, SNB-75",4.93e-05 M
same,GI50,"SW-620, 48 h, Colon Cancer, SW-620",0.561 µM
same,CC50,"SW-620, 48 h, read-out: LC50 (M), Colon Cancer, SW-620",5.95e-05 M
same,GI50,"T47D, 48 h, Breast Cancer, T-47D",0.0764 µM
same,CC50,"T47D, 48 h, read-out: LC50 (M), Breast Cancer, T-47D",> 0.0001 M
same,GI50,"TK-10, 48 h, Renal Cancer, TK-10",0.486 µM
same,CC50,"TK-10, 48 h, read-out: LC50 (M), Renal Cancer, TK-10",> 0.0001 M
same,GI50,"U-251, 48 h, CNS Cancer, U251",0.369 µM
same,CC50,"U-251, 48 h, read-out: LC50 (M), CNS Cancer, U251",3.48e-05 M
same,GI50,"UACC-62, 48 h, Melanoma, UACC-62",0.379 µM
same,CC50,"UACC-62, 48 h, read-out: LC50 (M), Melanoma, UACC-62",4.84e-05 M
same,GI50,"UACC-257, 48 h, Melanoma, UACC-257",0.355 µM
same,CC50,"UACC-257, 48 h, read-out: LC50 (M), Melanoma, UACC-257",4.17e-05 M
same,GI50,"UO-31, 48 h, Renal Cancer, UO-31",0.286 µM
same,CC50,"UO-31, 48 h, read-out: LC50 (M), Renal Cancer, UO-31",6.3e-05 M
same,TGI,"Leukemia, CCRF-CEM",0.769 µM
same,TGI,"Leukemia, HL-60(TB)",0.407 µM
same,TGI,"Leukemia, K-562",10.8 µM
same,TGI,"Leukemia, MOLT-4",0.774 µM
same,TGI,"Leukemia, RPMI-8226",12.5 µM
same,TGI,"Leukemia, SR",0.953 µM
same,TGI,"Melanoma, M14",0.599 µM
same,TGI,"Melanoma, MALME-3M",10.3 µM
same,TGI,"Melanoma, MDA-MB-435",25.1 µM
same,TGI,"Melanoma, SK-MEL-2",25.5 µM
same,TGI,"Melanoma, SK-MEL-5",1.72 µM
same,TGI,"Melanoma, SK-MEL-28",16.7 µM
same,TGI,"Melanoma, UACC-62",6.54 µM
same,TGI,"Non-Small Cell Lung Cancer, A549/ATCC",14.9 µM
same,TGI,"Non-Small Cell Lung Cancer, EKVX",20.5 µM
same,TGI,"Non-Small Cell Lung Cancer, HOP-62",17.7 µM
same,TGI,"Non-Small Cell Lung Cancer, HOP-92",31 µM
same,TGI,"Non-Small Cell Lung Cancer, NCI-H23",34.3 µM
same,TGI,"Non-Small Cell Lung Cancer, NCI-H226",16.2 µM
same,TGI,"Non-Small Cell Lung Cancer, NCI-H322M",35 µM
same,TGI,"Non-Small Cell Lung Cancer, NCI-H460",1.73 µM
same,TGI,"Non-Small Cell Lung Cancer, NCI-H522",23.2 µM
same,TGI,"Ovarian Cancer, IGROV1",28.9 µM
same,TGI,"Ovarian Cancer, NCI/ADR-RES",58.1 µM
same,TGI,"Ovarian Cancer, OVCAR-3",14.5 µM
same,TGI,"Ovarian Cancer, OVCAR-4",26.3 µM
same,TGI,"Ovarian Cancer, OVCAR-5",31.4 µM
same,TGI,"Ovarian Cancer, OVCAR-8",>100 µM
same,TGI,"Ovarian Cancer, SK-OV-3",29.2 µM
same,TGI,"Prostate Cancer, DU-145",15.1 µM
same,TGI,"Prostate Cancer, PC-3",71.1 µM
same,TGI,"Renal Cancer, 786-0",0.947 µM
same,TGI,"Renal Cancer, A498",8.81 µM
same,TGI,"Renal Cancer, ACHN",11 µM
same,TGI,"Renal Cancer, CAKI-1",14.8 µM
same,TGI,"Renal Cancer, RXF 393",10.6 µM
same,TGI,"Renal Cancer, SN12C",15.3 µM
same,TGI,"Renal Cancer, TK-10",56.6 µM
same,TGI,"Renal Cancer, UO-31",1.65 µM

# From patent publication US9061984B2 (University of Louisville Research Foundation, Inc., priority 2008, dated 2015)
